One data set deals with T1, TNF-α converting enzyme (Homo sapiens, UniProt P78536).
T1 construct: Human monocyte derived leukemia cell-line U937; endogenous in cells; host or cells: U937 (PMA-differentiated, LPS-stimulated)
The data set is described as follows: Assay for Suppression of TNF-α Production (LPS-stimulated U937 cells). The class given is cell-based. The conditions noted are these: U937 cells (PMA-differentiated), Lipopoplysaccaride 0.1 μg/ml, 37° C., 6 hours, TNF-α in supernatant; read-out: Inhibitory activities for TNF-α converting enzyme, IC50 value. As for the experimental part: Human monocyte derived leukemia cell-line U937 [5% bovine fetal serum (Men-eki Seibutsu Ken) was added to RPMI1640 (Nissui Seiyaku) and incubated in a 5% CO2 incubation chamber at 37° C., whereby 1×10^6 cells/1 ml were placed into each well of a multi-well plate and then incubated in presence of Phorbol 12-myristate 13-acetate (10^-7 M, Wako Junyaku) overnight and differentiated to macrophage like cells.] was added with Lipopoplysaccaride (0.1 μg/ml, Sigma) derived from E.coli 0127:B8 strain alone or together with a compound in Examples, and incubated in a 5% CO2 incubation chamber at 37° C. for 6 hours. After the incubation, the culture medium was taken and centrifuged at 3000 g for 10 min., whereby the supernatant was diluted with purified water forthe measurement using the TNF-α measurement kit (Genzyme) (Table 2).

The next data set has as its target T2, collagenase (MMP-1) (Homo sapiens, UniProt P03956).
T2 construct: endogenous in cells; host or cells: human fibroblast
T2 sequence (P03956 100-469): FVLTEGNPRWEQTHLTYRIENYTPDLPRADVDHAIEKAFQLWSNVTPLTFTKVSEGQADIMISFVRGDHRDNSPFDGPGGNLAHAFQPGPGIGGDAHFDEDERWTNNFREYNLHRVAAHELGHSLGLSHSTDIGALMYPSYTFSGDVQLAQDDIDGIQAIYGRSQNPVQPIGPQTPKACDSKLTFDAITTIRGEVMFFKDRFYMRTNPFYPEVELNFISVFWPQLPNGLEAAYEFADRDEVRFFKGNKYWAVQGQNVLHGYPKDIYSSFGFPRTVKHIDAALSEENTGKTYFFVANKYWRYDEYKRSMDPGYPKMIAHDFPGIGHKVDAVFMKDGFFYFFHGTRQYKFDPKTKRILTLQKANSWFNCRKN
The experiment in a line: Assay for Collagenase Inhibitory Activity (MMP-1). The class given is biochemical. The conditions noted are these: fluorescein-labeled bovine type I collagen substrate, 35° C., 2 hours, pH 7.5; read-out: Inhibitory activities for matrix metalloproeinases (MMPs), MMP-1, IC50 value. As for the experimental part: (§1) Inhibitory activities of the compounds represented by the general formula (I) according to the invention for collagenase (metalloproteinase concerned with a tissue destruction) derived from human fibroblast were tested by the method of Y. Murawaki et al., [Journal of Hepatology, 18, p. 328-334 (1993)], and their inhibitory activities for stromelysin derived from human fibroblast were measured by the method of S. S. Twining et al., [Anal. Biochem., 143, p. 30 (1984)].
Inhibitory activities for collagenase (MMP-1) of the compounds of Examples and comparative compounds were measured by the method of Y. Murawaki et al., [Journal of Hepatology, 18, p. 328-334 (1993)]. The latent procollagenase was activated by incubating with mercury aminophenylacetate (2 mM) at 35° C. for 2 hours. The assay was done by using bovine type I collagen labeled with fluorescein as a substrate. The activated collagenase was added to the substrate solution (0.5 mg/ml) in Tris HCl buffer (50 mM, pH 7.5) containing sodium chloride (0.4 M) and calcium chloride (10 mM). The obtained solution was incubated at 35° C. for 2 hours. The enzyme digestion was stopped by the addition of o-phenanthroline (80 mM). The mixture was added with pig spleen elastase solution (25 μg/ml) in the above Tris HCl buffer, and incubated 37° C. for 10 min. The obtained solution was added with 70% ethanol and Tris HCl buffer (170 mM, pH 9.5) containing sodium chloride (0.61 M), whereby the indigested substrate was sedimented by centrifuging at 3000 g for 20 min. The supernatant was taken, and its intensity of fluorescence was determined by the excitation wavelength (495 nm) and the measured wavelength (520 nm), and the inhibitory activity was obtained. IC50 is a concentration of a compound assayed in the digesting enzyme, whereby the splitting of the substrate was decreased to 50% compared with that attained by the enzyme alone.

In the next data set the target is T3, stromelysin (MMP-3) (Homo sapiens, UniProt P08254).
T3 construct: endogenous in cells; host or cells: human fibroblast
The data set is described as follows: Assay for Stromelysin Inhibitory Activity (MMP-3). It is filed as biochemical. To be noted: fluorescein-labeled casein substrate, 37° C., 2 hours, pH 7.8; read-out: Inhibitory activities for matrix metalloproeinases (MMPs), MMP-3, IC50 value. The procedure:
as §1
Inhibitory activities for stromelysin (MMP-3) of the compounds of Examples and comparative compounds were measured by the method of S. S. Twining et al., [Anal. Biochem., 143, p. 30 (1984)]. The latent prostromelysin was incubated with human plasmin (20 μg/ml) for the activation at 37° C. for 2 hours, and then the incubate was added with diisopropyl fluorophosphate solution (2.8 mg/ml) to stop the reaction. The assay was done by using casein labeled with fluorescein as the substrate. The activated stromelysin was added to a substrate solution (1 mg/ml) in Tris HCl buffer (50 mM, pH 7.8) containing calcium chloride (10 mM). The obtained solution was incubated at37° C. for 2 hours. The enzyme digestion forthesubstrate was stopped by adding 5% trichloroacetic acid. The indigested substrate was sedimented by centrifuging at 3000 g for 20 min. The supernatant was taken and added with Tris HCl buffer (0.5 M, pH 8.5), whereby its intensity of fluorescence was determined by the excitation wavelength (495 nm) and the measured wavelength (520 nm), and the inhibitory activity was obtained. IC50 is a concentration of a compound assayed in the digesting enzyme, whereby the splitting of the substrate was decreased to 50% compared with that attained by the enzyme alone.

Data set [1] is described as follows: Measurement of Solubility in Water. The class given is physicochemical. The conditions noted are these: water, distilled water, 20±5° C., 30 min., checked by eye. The procedure: A compound of Examples or a comparative compound was added to distilled water and shaken vigorously at 20±5° C. for 30 seconds at 5 min. interval. After 30 min., it was checked by watching with eye whether the compound was dissolved or not.

Values after ≈ are worked out from the molar mass of the structure shown. Where a name gives a salt, the structure may show the parent alone.

T1 sequence (P78536 215-824): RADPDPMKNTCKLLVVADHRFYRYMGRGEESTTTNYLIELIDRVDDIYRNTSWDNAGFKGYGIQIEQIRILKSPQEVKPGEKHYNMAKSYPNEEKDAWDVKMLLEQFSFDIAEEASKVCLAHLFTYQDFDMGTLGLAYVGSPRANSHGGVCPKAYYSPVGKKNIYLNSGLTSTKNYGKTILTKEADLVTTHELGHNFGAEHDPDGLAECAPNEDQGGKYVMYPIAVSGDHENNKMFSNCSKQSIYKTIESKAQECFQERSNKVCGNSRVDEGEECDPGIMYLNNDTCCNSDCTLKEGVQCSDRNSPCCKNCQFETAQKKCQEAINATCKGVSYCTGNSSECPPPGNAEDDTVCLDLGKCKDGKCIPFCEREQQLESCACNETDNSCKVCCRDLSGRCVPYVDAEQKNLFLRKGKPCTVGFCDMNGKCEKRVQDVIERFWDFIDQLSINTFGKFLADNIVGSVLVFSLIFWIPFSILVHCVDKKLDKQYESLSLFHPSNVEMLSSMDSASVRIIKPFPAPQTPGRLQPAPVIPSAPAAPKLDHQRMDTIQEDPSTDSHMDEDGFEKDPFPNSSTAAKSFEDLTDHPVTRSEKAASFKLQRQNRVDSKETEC
T3 sequence (P08254 100-477): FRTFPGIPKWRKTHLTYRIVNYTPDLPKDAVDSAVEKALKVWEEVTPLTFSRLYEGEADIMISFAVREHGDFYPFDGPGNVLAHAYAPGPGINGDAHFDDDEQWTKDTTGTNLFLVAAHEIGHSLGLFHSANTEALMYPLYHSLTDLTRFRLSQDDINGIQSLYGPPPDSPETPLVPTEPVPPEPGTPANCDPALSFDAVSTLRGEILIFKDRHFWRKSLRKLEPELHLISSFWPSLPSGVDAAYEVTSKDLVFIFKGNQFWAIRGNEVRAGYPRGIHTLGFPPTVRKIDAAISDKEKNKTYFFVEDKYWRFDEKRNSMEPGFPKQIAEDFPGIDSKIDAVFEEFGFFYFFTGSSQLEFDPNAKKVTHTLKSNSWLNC

As usually defined, the IC50 is the midpoint of a concentration-inhibition curve. On to `CNC(=O)[C@H](Cc1ccc(S(=O)(=O)O)cc1)NC(=O)[C@H](CC(C)C)C(CSc1cccs1)C(=O)NO` (single isomer, unassigned) [Example 5, N-[4-(N-Hydroxyamino)-2(R)-isobutyl-3(R or S)-(thienylthiomethylene)succinyl]-L-4'-sulfophenylalanine-N-methylamide, Monosodium Salt], for which the IC50 on TNF-α converting enzyme was found to be 0.5 µM.
Usually solubility stands for how much of the substance goes into solution per volume. A higher solubility goes with much dissolved substance. For `CNC(=O)[C@H](Cc1ccc(NC(=N)N)cc1)NC(=O)[C@H](CC(C)C)C(CCCc1ccccc1)C(=O)NO` (single isomer, unassigned) [Example 8, N-[4-(N-Hydroxyamino)-2(R)-isobutyl-3(R or S)-(3-phenyltrimethylene)succinyl]-L-4'-guanidophenylalanine-N-methylamideMonoacetate], the IC50 was found to be 0.006 µM on collagenase (MMP-1), 0.006 µM at stromelysin (MMP-3) and 0.098 µM on TNF-α converting enzyme. In addition, the solubility at 0.5 h in data set [1] is 30 mg/mL (≈ 57.2 mM).
Take `CCC(=N)NCc1ccc(C[C@H](NC(=O)[C@H](CC(C)C)C(CCCc2ccccc2)C(=O)NO)C(=O)NC)cc1` (single isomer, unassigned) [Example 11, N-[4-(N-Hydroxyamino)-2(R)-isobutyl-3(R or S)-(3-phenyltrimethylene)succinyl]-L-4'-propionimidoyliminomethylenephenylalanine-N-methylamide Monoacetate]: the IC50 at collagenase (MMP-1) is 0.0058 µM; on stromelysin (MMP-3) it was 0.009 µM; on TNF-α converting enzyme, 0.4 µM.
`CNC(=O)[C@H](Cc1ccc(S(=O)(=O)O)cc1)NC(=O)[C@H](CC(C)C)C(CCCc1ccccc1)C(=O)NO` (stereo partly drawn) [Example 4, N-[4-(N-Hydroxyamino)-2(R)-isobutyl-3(RS)-(3-phenyltrimethylene)succinyl]-L-4'-sulfophenylalanine-N-methylamide, Monosodium Salt]: the concentration for half-maximal inhibition (IC50) at TNF-α converting enzyme turned out to be 0.51 µM. Besides, in data set [1], the solubility at 0.5 h was found to be 150 mg/mL.
In the case of `CNC(=O)[C@H](Cc1ccc(NC(=N)N)cc1)NC(=O)[C@H](CC(C)C)[C@H](O)C(=O)NO` [Example 16, N-[4-(N-Hydroxyamino)-2(R)-isobutyl-3(S)-hydroxysuccinyl]-L-4'-guanidophenylalanine-N-methylamide Monoacetate], on TNF-α converting enzyme, the IC50 is 7 µM.
